# ChEMBL document CHEMBL1641450, “Non-covalent inhibitors of rhinovirus 3C protease” (Bioorg Med Chem Lett, 2011)
# The source made the active and inactive calls. The rule behind the calls is not given here.
# What was measured:
# [1] = Binding affinity to Human rhinovirus 2 purified 15N-labeled 3C protease after 50 mins by NMR assay; parameters: species or system rhinovirus A2
# rhinovirus A2 [2] = assay: Inhibition of Human rhinovirus 2 purified 3C protease at 100 uM preincubated for 30 mins measured after 1 hrs by FRET assay
# [3] = Inhibition of Human rhinovirus 2 purified 3C protease preincubated for 30 mins measured after 1 hrs by FRET assay; parameters: species or system rhinovirus A2
# rhinovirus A2 [4] = assay: Binding affinity to Human rhinovirus 2 purified 15N-labeled 3C protease at 500 uM after 50 mins by NMR assay
# [5] = Solubility of the compound; assay type: physicochemical
Structure (SMILES),inhibition (rhinovirus A2 [2]) [%],pIC50 [3],pKd [1],other results
Cn1c(-c2ccccc2)cc(=O)c2ccccc21,–,–,3,–
CNC(=O)Cc1ccc2c(=O)cc(-c3cccnc3)[nH]c2c1,45,–,–,–
COc1cc(-c2ccccc2)nc2ccccc12,–,–,< 3,–
O=c1cc(-c2ccccc2)oc2ccccc12 [FLAVONE],–,–,3,–
CCOC(=O)CCc1ccc2[nH]c(-c3cccnc3)cc(=O)c2c1,0,–,–,Activity (rhinovirus A2 [4]): inactive
Nc1cc(-c2ccccc2)nc2ccccc12,–,–,3,–
CNC(=O)c1ccc2c(=O)cc(-c3cccnc3)[nH]c2c1,40,–,–,–
Oc1cc(-c2ccccc2)nc2ccccc12,–,–,3.7,solubility [5]: 100 µM
O=c1cc(-c2cccnc2)[nH]c2cc(Cc3ccccc3)ccc12,100,5,–,solubility [5]: 1 µM
O=c1cc(-c2cccnc2)[nH]c2cc(C(O)c3ccccc3)ccc12 (racemic),80,4.7,–,–
c1ccc(-c2ccc3ccccc3n2)cc1 [2-PHENYLQUINOLINE],–,–,< 3,–
Cc1cc2[nH]c(-c3ccccc3)cc(=O)n2n1,43,–,–,solubility [5]: > 900 µM

# Now from value to compound, other results behind:
inhibition (rhinovirus A2 [2]) [%],pIC50 [3],Structure (SMILES),pKd [1],other results
> 95,6,O=Cc1ccc2[nH]c(-c3cccnc3)cc(=O)c2c1,–,–
< 10,–,COc1ccc2c(=O)cc(-c3cccnc3)[nH]c2c1,–,–
35,–,O=c1cc(-c2cccnc2)[nH]c2ccccc12,3.5,solubility [5]: > 1300 µM
40,–,Cc1ccc2c(=O)cc(-c3cccnc3)[nH]c2c1,–,–
50,4,N#Cc1ccc2[nH]c(-c3cccnc3)cc(=O)c2c1,–,–
70,4.2,O=C(O)/C=C/c1ccc2[nH]c(-c3cccnc3)cc(=O)c2c1,–,–
> 90,5.3,CCOC(=O)/C=C/c1ccc2[nH]c(-c3cccnc3)cc(=O)c2c1,–,–
25,–,CC(=O)c1ccc2[nH]c(-c3cccnc3)cc(=O)c2c1,–,–
